One experiment concerns the target hNav1.7 (Homo sapiens, UniProt Q15858). The experiment in a line: cell-based. The conditions noted are these: Nav1.7 Use IC50.
Another experiment addresses hNav1.5 (Homo sapiens, UniProt Q14524). The experiment in a line: cell-based.

Positions of bridges follow the written chain, without caps; N, C: chain ends. Non-standard residues stand in square brackets, D forms with d. Residues, ends and D or L forms follow the SMILES beside them. Phe(4-guanidino) = N=C(N)Nc1ccc(C[C@H](N)C(=O)O)cc1; Lys(Me2) = CN(C)CCCC[C@H](N)C(=O)O; Pra = C#CC[C@H](N)C(=O)O; Abu = CC[C@H](N)C(=O)O

Chain of hNav1.7 (Q15858 whole entry, looked up): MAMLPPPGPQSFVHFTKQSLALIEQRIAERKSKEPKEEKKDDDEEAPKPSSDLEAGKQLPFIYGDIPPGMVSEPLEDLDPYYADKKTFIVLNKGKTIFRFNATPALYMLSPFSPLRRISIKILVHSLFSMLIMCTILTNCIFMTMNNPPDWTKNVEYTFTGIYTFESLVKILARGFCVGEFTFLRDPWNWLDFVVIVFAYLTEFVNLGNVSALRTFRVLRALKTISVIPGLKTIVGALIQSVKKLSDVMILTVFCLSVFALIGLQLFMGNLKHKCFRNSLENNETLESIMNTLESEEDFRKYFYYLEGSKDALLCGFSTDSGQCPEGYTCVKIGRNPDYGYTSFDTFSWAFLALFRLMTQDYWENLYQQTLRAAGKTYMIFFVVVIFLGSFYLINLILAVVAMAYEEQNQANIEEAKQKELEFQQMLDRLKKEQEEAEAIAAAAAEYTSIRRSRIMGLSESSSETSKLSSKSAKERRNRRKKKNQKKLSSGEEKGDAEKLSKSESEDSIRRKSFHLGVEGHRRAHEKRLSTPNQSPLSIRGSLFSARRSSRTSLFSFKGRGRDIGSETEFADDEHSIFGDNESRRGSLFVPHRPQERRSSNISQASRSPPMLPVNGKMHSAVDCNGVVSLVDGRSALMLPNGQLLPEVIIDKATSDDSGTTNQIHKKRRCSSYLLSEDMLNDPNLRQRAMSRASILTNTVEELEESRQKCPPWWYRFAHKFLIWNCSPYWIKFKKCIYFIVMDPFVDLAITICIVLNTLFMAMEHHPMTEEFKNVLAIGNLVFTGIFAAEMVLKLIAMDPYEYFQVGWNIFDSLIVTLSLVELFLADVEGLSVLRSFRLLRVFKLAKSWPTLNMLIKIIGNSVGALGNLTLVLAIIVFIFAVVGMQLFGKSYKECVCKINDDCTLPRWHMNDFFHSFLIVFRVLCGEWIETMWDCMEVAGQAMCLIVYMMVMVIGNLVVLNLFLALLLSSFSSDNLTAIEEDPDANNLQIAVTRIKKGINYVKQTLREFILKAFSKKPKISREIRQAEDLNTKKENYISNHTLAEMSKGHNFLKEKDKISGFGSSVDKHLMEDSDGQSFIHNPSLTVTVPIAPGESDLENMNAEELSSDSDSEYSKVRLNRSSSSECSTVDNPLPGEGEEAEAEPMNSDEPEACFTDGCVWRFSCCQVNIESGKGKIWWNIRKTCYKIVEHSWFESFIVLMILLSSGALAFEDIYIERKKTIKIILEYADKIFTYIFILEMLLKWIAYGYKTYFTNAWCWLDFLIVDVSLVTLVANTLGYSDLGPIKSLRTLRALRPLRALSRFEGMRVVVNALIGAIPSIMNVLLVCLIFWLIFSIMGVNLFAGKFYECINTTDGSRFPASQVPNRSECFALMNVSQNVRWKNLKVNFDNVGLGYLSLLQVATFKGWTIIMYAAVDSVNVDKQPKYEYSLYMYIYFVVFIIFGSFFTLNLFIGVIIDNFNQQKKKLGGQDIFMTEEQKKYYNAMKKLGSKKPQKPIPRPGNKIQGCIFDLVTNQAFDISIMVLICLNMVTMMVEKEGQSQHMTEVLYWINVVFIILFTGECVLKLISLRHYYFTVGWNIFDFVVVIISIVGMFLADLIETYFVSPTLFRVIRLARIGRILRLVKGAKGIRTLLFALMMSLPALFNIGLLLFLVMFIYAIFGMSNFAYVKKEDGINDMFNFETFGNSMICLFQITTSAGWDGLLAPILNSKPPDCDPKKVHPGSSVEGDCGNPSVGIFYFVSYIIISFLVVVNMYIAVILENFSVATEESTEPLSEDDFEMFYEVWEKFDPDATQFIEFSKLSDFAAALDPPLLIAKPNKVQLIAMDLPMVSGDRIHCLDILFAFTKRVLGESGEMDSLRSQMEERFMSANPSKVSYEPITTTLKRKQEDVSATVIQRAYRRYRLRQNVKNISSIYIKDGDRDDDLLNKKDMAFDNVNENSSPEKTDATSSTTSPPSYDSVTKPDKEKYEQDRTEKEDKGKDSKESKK
Chain of hNav1.5 (Q14524 whole entry, looked up): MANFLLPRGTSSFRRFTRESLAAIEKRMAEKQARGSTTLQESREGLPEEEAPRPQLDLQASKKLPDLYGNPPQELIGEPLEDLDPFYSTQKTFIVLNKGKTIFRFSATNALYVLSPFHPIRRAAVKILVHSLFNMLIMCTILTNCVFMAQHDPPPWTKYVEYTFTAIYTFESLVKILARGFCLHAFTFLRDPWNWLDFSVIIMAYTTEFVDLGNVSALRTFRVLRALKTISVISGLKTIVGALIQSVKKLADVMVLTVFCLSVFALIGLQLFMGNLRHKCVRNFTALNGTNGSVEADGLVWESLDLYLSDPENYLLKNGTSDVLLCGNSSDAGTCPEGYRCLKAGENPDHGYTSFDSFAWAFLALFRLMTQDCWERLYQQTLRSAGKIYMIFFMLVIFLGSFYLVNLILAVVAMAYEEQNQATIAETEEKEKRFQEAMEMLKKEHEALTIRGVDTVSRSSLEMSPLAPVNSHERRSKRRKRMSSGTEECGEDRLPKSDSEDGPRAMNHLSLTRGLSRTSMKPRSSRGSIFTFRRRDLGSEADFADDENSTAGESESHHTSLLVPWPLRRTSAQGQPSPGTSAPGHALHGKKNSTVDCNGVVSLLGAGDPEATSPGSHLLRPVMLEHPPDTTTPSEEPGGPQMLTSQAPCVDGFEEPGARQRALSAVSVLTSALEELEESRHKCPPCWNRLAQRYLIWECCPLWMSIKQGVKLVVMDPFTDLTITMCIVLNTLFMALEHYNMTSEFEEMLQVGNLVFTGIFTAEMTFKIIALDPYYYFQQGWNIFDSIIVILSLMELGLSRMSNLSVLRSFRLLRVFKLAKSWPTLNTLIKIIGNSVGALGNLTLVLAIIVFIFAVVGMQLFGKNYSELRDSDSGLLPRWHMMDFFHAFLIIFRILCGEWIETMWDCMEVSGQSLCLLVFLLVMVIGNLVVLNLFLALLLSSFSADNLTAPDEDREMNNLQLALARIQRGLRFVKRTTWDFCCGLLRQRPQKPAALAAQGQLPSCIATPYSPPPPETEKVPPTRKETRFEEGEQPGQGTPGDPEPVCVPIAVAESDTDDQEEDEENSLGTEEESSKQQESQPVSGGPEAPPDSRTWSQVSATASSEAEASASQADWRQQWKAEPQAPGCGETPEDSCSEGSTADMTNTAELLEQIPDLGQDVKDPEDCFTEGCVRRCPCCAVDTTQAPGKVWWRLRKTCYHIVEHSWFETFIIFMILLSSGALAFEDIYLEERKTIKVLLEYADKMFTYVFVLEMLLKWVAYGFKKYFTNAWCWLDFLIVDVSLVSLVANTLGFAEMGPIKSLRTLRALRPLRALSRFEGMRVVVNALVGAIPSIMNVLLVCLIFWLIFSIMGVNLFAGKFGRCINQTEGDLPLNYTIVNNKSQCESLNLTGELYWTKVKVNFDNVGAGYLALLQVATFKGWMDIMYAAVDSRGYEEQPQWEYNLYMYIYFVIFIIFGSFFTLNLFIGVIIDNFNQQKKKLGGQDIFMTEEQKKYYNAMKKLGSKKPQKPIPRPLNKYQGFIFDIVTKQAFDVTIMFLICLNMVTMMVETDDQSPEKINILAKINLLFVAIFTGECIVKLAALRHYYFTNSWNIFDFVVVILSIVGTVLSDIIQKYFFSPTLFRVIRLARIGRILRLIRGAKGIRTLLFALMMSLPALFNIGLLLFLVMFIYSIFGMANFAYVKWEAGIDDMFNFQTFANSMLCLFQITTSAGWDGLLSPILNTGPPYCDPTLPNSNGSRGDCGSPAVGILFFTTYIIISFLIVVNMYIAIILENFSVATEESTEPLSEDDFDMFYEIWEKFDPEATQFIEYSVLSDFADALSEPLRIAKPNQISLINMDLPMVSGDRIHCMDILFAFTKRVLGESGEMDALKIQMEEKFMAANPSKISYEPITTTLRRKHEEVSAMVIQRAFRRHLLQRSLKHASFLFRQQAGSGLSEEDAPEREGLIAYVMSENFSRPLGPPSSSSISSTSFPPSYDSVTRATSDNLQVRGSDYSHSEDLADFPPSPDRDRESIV

For `CC[C@H](C)[C@@H]1NC(=O)[C@@H]2CSSC[C@@H]3NC(=O)[C@H](C(C)C)NC(=O)[C@H](CC(C)C)NC(=O)[C@H](CC(N)=O)NC(=O)[C@@H]4CCCN4C(=O)[C@H](CCCNC(=N)N)NC(=O)[C@H](CSSC[C@H](NC(=O)[C@@H](N)CC(=O)O)C(=O)N[C@@H](CC(C)C)C(=O)NCC(=O)N[C@@H](C)C(=O)N[C@@H](CCSC)C(=O)N[C@@H](CCCNC(=N)N)C(=O)N[C@@H](CCCCN)C(=O)N2)NC(=O)[C@H](CSSC[C@@H](C(=O)N[C@@H](CCCCN)C(=O)N[C@@H](Cc2ccc(O)cc2)C(=O)N[C@H](C(=O)N[C@@H](Cc2ccccc2)C(N)=O)C(C)C)NC(=O)[C@H](Cc2c[nH]c4ccccc24)NC(=O)[C@H](Cc2ccc(NC(=N)N)cc2)NC(=O)[C@H](Cc2c[nH]cn2)NC(=O)[C@H]([C@@H](C)O)NC(=O)[C@H](CCCNC(=N)N)NC(=O)[C@H](CO)NC3=O)NC(=O)[C@H](CCCCN)NC(=O)[C@H](CC(=O)O)NC(=O)[C@H](CC(N)=O)NC(=O)[C@H](CC(=O)O)NC(=O)[C@@H]2CCCN2C1=O` [[Ala5;Guf28]GpTx-1(1-34)] (H-DCLGAMRKCIPDNDKCCRPNLVCSRTH[Phe(4-guanidino)]WCKYVF-NH2; disulfide 2-17, 9-23, 16-30), the IC50 is 0.005 µM on hNav1.7 and over 10 µM on hNav1.5.
For `CC[C@H](C)[C@@H]1NC(=O)[C@@H]2CSSC[C@@H]3NC(=O)[C@H](C(C)C)NC(=O)[C@H](CC(C)C)NC(=O)[C@H](CC(N)=O)NC(=O)[C@@H]4CCCN4C(=O)[C@H](CCCNC(=N)N)NC(=O)[C@H](CSSC[C@H](NC(=O)[C@@H](N)CC(=O)O)C(=O)N[C@@H](CC(C)C)C(=O)NCC(=O)N[C@@H](C(C)C)C(=O)N[C@@H](CC(C)C)C(=O)N[C@@H](CCCNC(=N)N)C(=O)N[C@@H](CCCCN)C(=O)N2)NC(=O)[C@H](CSSC[C@@H](C(=O)N[C@@H](CCCCN)C(=O)N[C@@H](Cc2ccc(O)cc2)C(=O)N[C@H](C(=O)N[C@@H](Cc2ccccc2)C(N)=O)C(C)C)NC(=O)[C@H](Cc2c[nH]c4ccccc24)NC(=O)[C@H](CCC(=O)O)NC(=O)[C@H](Cc2c[nH]cn2)NC(=O)[C@H]([C@@H](C)O)NC(=O)[C@H](CCCNC(=N)N)NC(=O)[C@H](CO)NC3=O)NC(=O)[C@H](CCCCN)NC(=O)[C@H](CC(=O)O)NC(=O)[C@H](CC(N)=O)NC(=O)[C@H](CC(=O)O)NC(=O)[C@@H]2CCCN2C1=O` [[Val5;Leu6;Glu28]GpTx-1(1-34)] (H-DCLGVLRKCIPDNDKCCRPNLVCSRTHEWCKYVF-NH2; disulfide 2-17, 9-23, 16-30) the same measures were 0.086 µM and over 10 µM.
The matching figures for `CC[C@H](C)[C@@H]1NC(=O)[C@@H]2CSSC[C@@H]3NC(=O)[C@H](C(C)C)NC(=O)[C@H](CC(C)C)NC(=O)[C@H](CC(N)=O)NC(=O)[C@@H]4CCCN4C(=O)[C@H](CCCNC(=N)N)NC(=O)[C@H](CSSC[C@H](NC(=O)[C@@H](N)CC(=O)O)C(=O)N[C@@H](CC(C)C)C(=O)NCC(=O)N(C)[C@@H](C(C)C)C(=O)N[C@@H](CC(C)C)C(=O)N[C@@H](CCCNC(=N)N)C(=O)N[C@@H](CCCCN)C(=O)N2)NC(=O)[C@H](CSSC[C@@H](C(=O)N[C@@H](CCCCN)C(=O)N[C@@H](Cc2ccc(O)cc2)C(=O)N[C@H](C(=O)N[C@@H](Cc2ccccc2)C(N)=O)C(C)C)NC(=O)[C@H](Cc2c[nH]c4ccccc24)NC(=O)[C@H](CCCCN)NC(=O)[C@H](Cc2c[nH]cn2)NC(=O)[C@H]([C@@H](C)O)NC(=O)[C@H](CCCNC(=N)N)NC(=O)[C@H](CO)NC3=O)NC(=O)[C@H](CCCCN)NC(=O)[C@H](CC(=O)O)NC(=O)[C@H](CC(N)=O)NC(=O)[C@H](CC(=O)O)NC(=O)[C@@H]2CCCN2C1=O` [[NMeVal5;Leu6]GpTx-1(1-34)]: 0.05 µM and over 10 µM.
The matching figures for `CC[C@H](C)[C@@H]1NC(=O)[C@@H]2CSSC[C@@H]3NC(=O)[C@H](C(C)C)NC(=O)[C@H](CC(C)C)NC(=O)[C@H](CC(N)=O)NC(=O)[C@@H]4CCCN4C(=O)[C@H](CCCNC(=N)N)NC(=O)[C@H](CSSC[C@H](NC(=O)[C@@H](N)CC(=O)O)C(=O)N[C@@H](CC(C)C)C(=O)NCC(=O)N[C@@H](Cc4ccccc4)C(=O)N[C@@H](CCSC)C(=O)N[C@@H](CCCNC(=N)N)C(=O)N[C@@H](CCCCN)C(=O)N2)NC(=O)[C@H](CSSC[C@@H](C(=O)N[C@@H](CCCCN)C(=O)N[C@@H](Cc2ccc(O)cc2)C(=O)N[C@H](C(=O)N[C@@H](Cc2ccccc2)C(N)=O)C(C)C)NC(=O)[C@H](Cc2c[nH]c4ccccc24)NC(=O)[C@H](CCCCN)NC(=O)[C@H](Cc2c[nH]cn2)NC(=O)[C@H]([C@@H](C)O)NC(=O)[C@H](CCCCN(C)C)NC(=O)[C@H](CO)NC3=O)NC(=O)[C@H](CCCCN)NC(=O)[C@H](CC(=O)O)NC(=O)[C@H](CC(N)=O)NC(=O)[C@H](CC(=O)O)NC(=O)[C@@H]2CCCN2C1=O` [[K(Me2)25]GpTx-1(1-34)] (H-DCLGFMRKCIPDNDKCCRPNLVCS[Lys(Me2)]THKWCKYVF-NH2; disulfide 2-17, 9-23, 16-30): 0.008 µM and 13.3 µM.
In the case of `CC[C@@H]1NC(=O)[C@@H]2CSSC[C@@H](C(=O)N[C@@H](CCCCN)C(=O)N[C@@H](Cc3ccc(O)cc3)C(=O)N[C@H](C(=O)N[C@@H](Cc3ccccc3)C(N)=O)C(C)C)NC(=O)[C@H](Cc3c[nH]c4ccccc34)NC(=O)[C@H](CCCCN)NC(=O)[C@H](Cc3c[nH]cn3)NC(=O)[C@H]([C@@H](C)O)NC(=O)[C@H](CCCNC(=N)N)NC(=O)[C@H](CO)NC(=O)[C@H](CSSC[C@H](NC(=O)[C@H](CCCCN)NC(=O)[C@H](CCCNC(=N)N)NC(=O)[C@H](CCSC)NC(=O)[C@H](Cc3ccccc3)NC(=O)CNC(=O)[C@H](CC(C)C)NC(=O)[C@H](CC)NC(=O)[C@@H](N)CC(=O)O)C(=O)N[C@@H]([C@@H](C)CC)C(=O)N3CCC[C@H]3C(=O)N[C@@H](CC(=O)O)C(=O)N[C@@H](CC(N)=O)C(=O)N[C@@H](CC(=O)O)C(=O)N[C@@H](CCCCN)C(=O)N2)NC(=O)[C@H](C(C)C)NC(=O)[C@H](CC(C)C)NC(=O)[C@H](CC(N)=O)NC(=O)[C@@H]2CCCN2C(=O)[C@H](CCCNC(=N)N)NC1=O` [[2-Abu2,17]GpTx-1(1-34)] (H-D[Abu]LGFMRKCIPDNDKC[Abu]RPNLVCSRTHKWCKYVF-NH2; disulfide 9-23, 16-30), the values for the IC50 at hNav1.7 and on hNav1.5 were 0.021 µM and 10 µM, respectively.
For `CC[C@H](C)[C@@H]1NC(=O)[C@@H]2CSSC[C@@H]3NC(=O)[C@H](C(C)C)NC(=O)[C@H](CC(C)C)NC(=O)[C@H](CC(N)=O)NC(=O)[C@@H]4CCCN4C(=O)[C@H](CCCNC(=N)N)NC(=O)[C@H](CSSC[C@H](NC(=O)[C@@H](N)CC(=O)O)C(=O)N[C@@H](CC(C)C)C(=O)NCC(=O)N[C@@H](C(C)C)C(=O)N[C@@H](CC(C)C)C(=O)N[C@@H](CCCNC(=N)N)C(=O)N[C@@H](CCCCN)C(=O)N2)NC(=O)[C@H](CSSC[C@@H](C(=O)N[C@@H](CCCCN)C(=O)N[C@@H](Cc2ccc(O)cc2)C(=O)N[C@H](C(=O)N[C@@H](Cc2ccccc2)C(N)=O)C(C)C)NC(=O)[C@H](Cc2c[nH]c4ccccc24)NC(=O)[C@H](CCCCN)NC(=O)[C@H](Cc2c[nH]cn2)NC(=O)[C@H]([C@@H](C)O)NC(=O)[C@H](CCCNC(=N)N)NC(=O)[C@H](CO)NC3=O)NC(=O)[C@H](CCCCN)NC(=O)[C@H](CC(=O)O)NC(=O)[C@H](CC(N)=O)NC(=O)[C@H](CC(=O)O)NC(=O)[C@@H]2CCCN2C1=O` [[Val5;Leu6]GpTx-1(1-34)] (H-DCLGVLRKCIPDNDKCCRPNLVCSRTHKWCKYVF-NH2; disulfide 2-17, 9-23, 16-30) the same measures were 0.2 µM and over 10 µM.
The matching figures for `C#CC[C@@H]1NC(=O)[C@H](CC(=O)O)NC(=O)[C@@H]2CCCN2C(=O)[C@H]([C@@H](C)CC)NC(=O)[C@@H]2CSSC[C@@H]3NC(=O)[C@H](C(C)C)NC(=O)[C@H](CC(C)C)NC(=O)[C@H](CC(N)=O)NC(=O)[C@@H]4CCCN4C(=O)[C@H](CCCNC(=N)N)NC(=O)[C@H](CSSC[C@H](NC(=O)[C@@H](N)CC(=O)O)C(=O)N[C@@H](CC(C)C)C(=O)NCC(=O)N[C@@H](C)C(=O)N[C@@H](CC(C)C)C(=O)N[C@@H](CCCNC(=N)N)C(=O)N[C@@H](CCCCN)C(=O)N2)NC(=O)[C@H](CSSC[C@@H](C(=O)N[C@@H](CCCCN)C(=O)N[C@@H](Cc2ccc(O)cc2)C(=O)N[C@H](C(=O)N[C@@H](Cc2ccccc2)C(N)=O)C(C)C)NC(=O)[C@H](Cc2c[nH]c4ccccc24)NC(=O)[C@H](CCCNC(=N)N)NC(=O)[C@H](Cc2c[nH]cn2)NC(=O)[C@H](CC(C)C)NC(=O)[C@H](CCCNC(=N)N)NC(=O)[C@H](CO)NC3=O)NC(=O)[C@H](CCCCN)NC(=O)[C@H](CC(=O)O)NC1=O` [[Ala5;Leu6,26;Pra13;Arg28]GpTx-1(1-34)] (H-DCLGALRKCIPD[Pra]DKCCRPNLVCSRLHRWCKYVF-NH2; disulfide 2-17, 9-23, 16-30): 0.009 µM and over 10 µM.
For `CC[C@H](C)[C@@H]1NC(=O)[C@@H]2CSSC[C@@H]3NC(=O)[C@H](Cc4ccc(O)cc4)NC(=O)[C@H](CC(C)C)NC(=O)[C@H](CC(N)=O)NC(=O)[C@@H]4CCCN4C(=O)[C@H](CCCNC(=N)N)NC(=O)[C@H](CSSC[C@H](NC(=O)[C@@H](N)CC(=O)O)C(=O)N[C@@H](CC(C)C)C(=O)NCC(=O)N[C@@H](Cc4ccccc4)C(=O)N[C@@H](CCSC)C(=O)N[C@@H](CCCNC(=N)N)C(=O)N[C@@H](CCCCN)C(=O)N2)NC(=O)[C@H](CSSC[C@@H](C(=O)N[C@@H](CCCCN)C(=O)N[C@@H](Cc2ccc(O)cc2)C(=O)N[C@H](C(=O)N[C@@H](Cc2ccccc2)C(N)=O)C(C)C)NC(=O)[C@H](Cc2c[nH]c4ccccc24)NC(=O)[C@H](CCCCN)NC(=O)[C@H](Cc2c[nH]cn2)NC(=O)[C@H]([C@@H](C)O)NC(=O)[C@H](CCCNC(=N)N)NC(=O)[C@H](CO)NC3=O)NC(=O)[C@H](CCCCN)NC(=O)[C@H](CC(=O)O)NC(=O)[C@H](CC(N)=O)NC(=O)[C@H](CC(=O)O)NC(=O)[C@@H]2CCCN2C1=O` [[Tyr22]GpTx-1(1-34)] (H-DCLGFMRKCIPDNDKCCRPNLYCSRTHKWCKYVF-NH2; disulfide 2-17, 9-23, 16-30) the same measures were 0.018 µM and over 10 µM.

The values are drawn from patent US9340590B2 (priority 2011, dated 2016).
